From US20210386367A1, “DEVICES AND SYSTEMS FOR GASTROINTESTINAL MICROBIOME DETECTION AND MANIPULATION” (Progenity, Inc., priority 2018, published 2021)
Values after ≈ are worked out from the molar mass of the structure shown. Values joined by “and” are separate entries in the source; they are usually repeats but may differ in a detail not shown here. Equal entries are not always repeated. Where two headings read alike, the source gives them in different places.

Tests used:
Format in all cases: cell-based
[1] = system: Enterococcus faecalis clinical isolates; experiment: MIC distribution against clinical isolates
[2] = system: Staphylococcus aureus clinical isolates; experiment: MIC distribution against clinical isolates; settings: 50 S. aureus isolates
[3] = system: Streptococcus pyogenes clinical isolates; experiment: MIC distribution against clinical isolates
Procedure, shortened: (§1)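 MIC is the lowest agent concentration preventing growth, determined by broth or agar dilution with serial compound dilutions and incubation under appropriate conditions (e.g., overnight at 37° C.). MIC90 is the concentration inhibiting ≥90% of isolates in the test population.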

[4] = system: Viridans group Streptococci clinical isolates; experiment: MIC distribution against clinical isolates; settings: 15 Viridans group Streptococci isolates
Procedure, shortened: as §1

[5] = system: Enterococcus faecalis; experiment: Broth microdilution MIC, 50 clinical isolates
Procedure, shortened: (§2)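 Medium: cation-adjusted MHB, plus 3% lysed horse blood for streptococci, which were incubated with CO2 planchets. Final inoculum approx. 5×10^5 CFU/mL; serial two-fold drug dilutions per CLSI.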

[6] = system: Staphylococcus aureus; experiment: Broth microdilution MIC, 50 clinical isolates (28 MRSA)
Procedure, shortened: as §2

[7] = system: Streptococcus spp.; experiment: Broth microdilution MIC, 54 clinical isolates; settings: for Mode: modal MIC
Procedure, shortened: as §2

[8] = MIC >32 μg/mL, 50 E. faecalis isolates
[9] = 54 Streptococcus spp. clinical isolates
[10] = MIC 1 μg/mL, 50 E. faecalis isolates
[11] = MIC 2 μg/mL, 50 E. faecalis isolates
[12] = MIC 4 μg/mL, 50 E. faecalis isolates
[13] = MIC 8 μg/mL, 50 E. faecalis isolates
[14] = MIC 16 μg/mL, 50 E. faecalis isolates
[15] = MIC >64 μg/mL, 50 E. faecalis isolates
[16] = MIC […], 50 E. faecalis isolates
[17] = MIC 0.03 μg/mL, 19 S. pyogenes isolates
[18] = MIC 0.06 μg/mL, 19 S. pyogenes isolates

CN[C@H](CC(C)C)C(=O)N[C@H]1C(=O)N[C@@H](CC(N)=O)C(=O)N[C@H]2C(=O)N[C@H]3C(=O)N[C@H](C(=O)N[C@H](C(=O)O)c4cc(O)cc(O)c4-c4cc3ccc4O)[C@H](O)c3ccc(c(Cl)c3)Oc3cc2cc(c3O[C@@H]2O[C@H](CO)[C@@H](O)[C@H](O)[C@H]2O[C@H]2C[C@](C)(N)[C@H](O)[C@H](C)O2)Oc2ccc(cc2Cl)[C@H]1O [vancomycin, Vancomycin]
Cumulative percentage of isolates inhibited at MIC [1, 8]: 100.0% | Number of test isolates at MIC [1, 8]: 13 | Cumulative percentage of isolates inhibited at MIC ([1]; listed as VAN): 48.0% and 64.0% and 72.0% and 74.0% | Cumulative percentage of isolates inhibited at MIC ([2]; MIC 1 μg/mL): 100.0% | Cumulative percentage of isolates inhibited at MIC ([3]; listed as VAN): 89.5% and 100.0% | Cumulative percentage of isolates inhibited at MIC ([4]; MIC 1 μg/mL): 100.0% | Number of test isolates at MIC ([4]; MIC 1 μg/mL): 1 | % R [5]: 26% | % S [5]: 74% ^ | Mode [5]: 0.5 µg/mL | MIC50 ([5]; Enterococcus faecalis): 1 µg/mL (≈ 0.69 µM) | MIC90 ([5]; Enterococcus faecalis): > 32 µg/mL | % R ([5]; listed as VAN): 26% ^ | % S [6]: 100% | MIC range [6]: 0.25 to 1 µg/mL | Mode [6]: 0.5 µg/mL | MIC50 ([6]; Staphylococcus aureus): 0.5 µg/mL (≈ 0.345 µM) | MIC90 ([6]; Staphylococcus aureus): 1 µg/mL (≈ 0.69 µM) | MIC range [7, 9]: 0.25 to 1 µg/mL | % S ([7]; 54 Streptococcus spp. clinical isolates, MXF by FDA breakpoints): 100% | MIC50 ([7]; Streptococcus): 0.25 µg/mL (≈ 0.173 µM) | MIC90 ([7]; Streptococcus): 0.5 µg/mL (≈ 0.345 µM) | Mode [7, 9]: 0.25 µg/mL

piperacillin/tazobactam [piperacillin-tazobactam]
Cumulative percentage of isolates inhibited at MIC [1, 10]: 10.0% | Number of test isolates at MIC [1, 10]: 4 | Cumulative percentage of isolates inhibited at MIC [1, 11]: 32.0% | Number of test isolates at MIC [1, 11]: 11 | Cumulative percentage of isolates inhibited at MIC [1, 12]: 70.0% | Number of test isolates at MIC [1, 12]: 19 | Cumulative percentage of isolates inhibited at MIC [1, 13]: 90.0% | Number of test isolates at MIC [1, 13]: 10 | Cumulative percentage of isolates inhibited at MIC [1, 14]: 98.0% | Number of test isolates at MIC [1, 14]: 4 | Cumulative percentage of isolates inhibited at MIC [1, 15]: 100.0% | Number of test isolates at MIC [1, 15]: 1 | Cumulative percentage of isolates inhibited at MIC [1, 16]: 2.0% | Number of test isolates at MIC [1, 16]: 1 | Cumulative percentage of isolates inhibited at MIC ([2]; MIC 0.5 μg/mL): 6.0% | Number of test isolates at MIC ([2]; MIC 0.5 μg/mL): 3 | Cumulative percentage of isolates inhibited at MIC ([2]; MIC 1 μg/mL): 24.0% | Number of test isolates at MIC ([2]; MIC 1 μg/mL): 9 | Cumulative percentage of isolates inhibited at MIC ([2]; MIC 2 μg/mL): 42.0% | Number of test isolates at MIC ([2]; MIC 2 μg/mL): 9 | Cumulative percentage of isolates inhibited at MIC ([2]; MIC 4 μg/mL): 46.0% | Number of test isolates at MIC ([2]; MIC 4 μg/mL): 2 | Cumulative percentage of isolates inhibited at MIC ([2]; MIC 8 μg/mL): 52.0% | Number of test isolates at MIC ([2]; MIC 8 μg/mL): 3 | Cumulative percentage of isolates inhibited at MIC ([2]; MIC 16 μg/mL): 54.0% | Number of test isolates at MIC ([2]; MIC 16 μg/mL): 1 | Cumulative percentage of isolates inhibited at MIC ([2]; MIC 32 μg/mL): 66.0% | Number of test isolates at MIC ([2]; MIC 32 μg/mL): 6 | Cumulative percentage of isolates inhibited at MIC ([2]; MIC 64 μg/mL): 92.0% | Number of test isolates at MIC ([2]; MIC 64 μg/mL): 13 | Cumulative percentage of isolates inhibited at MIC ([2]; MIC >64 μg/mL): 100.0% | Number of test isolates at MIC ([2]; MIC >64 μg/mL): 4 | Cumulative percentage of isolates inhibited at MIC [3, 17]: 21.1% | Number of test isolates at MIC [3, 17]: 4 | Cumulative percentage of isolates inhibited at MIC [3, 18]: 89.5% | Number of test isolates at MIC [3, 18]: 13 | Number of test isolates at MIC ([3]; MIC […], 19 S. pyogenes isolates): 1 | Cumulative percentage of isolates inhibited at MIC ([4]; MIC 0.015 μg/mL): 6.7% | Number of test isolates at MIC ([4]; MIC 0.015 μg/mL): 1 | Cumulative percentage of isolates inhibited at MIC ([4]; MIC 0.03 μg/mL): 26.7% | Number of test isolates at MIC ([4]; MIC 0.03 μg/mL): 3 | Cumulative percentage of isolates inhibited at MIC ([4]; MIC 0.06 μg/mL): 46.7% | Number of test isolates at MIC ([4]; MIC 0.06 μg/mL): 3 | Cumulative percentage of isolates inhibited at MIC ([4]; MIC 1 μg/mL): 66.7% | Number of test isolates at MIC ([4]; MIC 1 μg/mL): 1 | Cumulative percentage of isolates inhibited at MIC ([4]; MIC 2 μg/mL): 80.0% | Number of test isolates at MIC ([4]; MIC 2 μg/mL): 2 | Cumulative percentage of isolates inhibited at MIC ([4]; MIC 4 μg/mL): 100.0% | Number of test isolates at MIC ([4]; MIC 4 μg/mL): 3 | Number of test isolates at MIC ([4]; MIC […]): 1 | MIC50 [5]: 4 µg/mL | MIC90 [5]: 8 µg/mL | Mode [5]: 4 µg/mL | MIC50 [6]: 8 µg/mL | MIC90 [6]: 64 µg/mL | Mode [6]: 64 µg/mL | % R ([6]; FDA breakpoints): 48% ^1 | % S ([6]; FDA breakpoints): 52% ^1 | MIC50 [7, 9]: 0.12 µg/mL | MIC90 [7, 9]: 1 µg/mL | MIC range [7, 9]: 0.015 to 4 µg/mL | Mode [7, 9]: 0.25 µg/mL
